Results published in patent EP0386611A2, “Amino acid derivatives” (F. HOFFMANN-LA ROCHE AG, priority 1989, dated 1990).
Read-outs that look alike come from different tables or passages of the source.

What was measured:
HIV protease = target: T1, HIV protease (Human immunodeficiency virus type 1 group M subtype B, UniProt P04585); test: In vitro inhibition of HIV protease (spectrophotometric assay of N-terminal proline from cleavage of substrate S¹ or S²); type: biochemical; details: citrate buffer pH 5.5, 37°C
T1 construct: HIV protease was expressed in E. coli and partially purified from soluble extracts; made in house; host or cells: E. coli
Procedure: HIV protease was expressed in E. coli and partially purified from soluble extracts of the bacterium by ammonium sulphate fractionation (0-30%). Protease activity was assayed using as the substrate the protected hexapeptide succinyl-Ser-Leu-Asn-Tyr-Pro-Ile isobutylamide (S¹) or the protected heptapeptide succinyl-Val-Ser-Gln-Asn-Phe-Pro-Ile isobutylamide (S²). Cleavage of the substrate was quantified by measuring the production of H-Pro-Ile isobutylamide by the spectrophotometric assay of N-terminal proline.
1.25 mM of substrate S¹ or 0.68 mM of substrate S² were dissolved in 125 mM of citrate buffer (pH 5.5) containing 0.125 mg/ml of Tween 20. 10 µl of a solution of various concentrations of the test compound (dissolved in methanol or dimethyl sulphoxide and diluted with water containing 0.1% Tween 20) and 10 µl of protease were added to 80 µl of the respective buffered substrate. Digestion was carried out at 37°C for a fixed period of time and was terminated by the addition of 1 ml of colour reagent [30 µg/ml of isatin and 1.5 mg/ml of 2-(4-chlorobenzoyl)benzoic acid in 10% acetone in ethanol (vol./vol.)]. The solution was heated in a boiling water bath for 15 minutes and then the pigmented residues were re-dissolved in 1 ml of 1% pyrogallol in 33% water in acetone (wt./vol./vol.). The optical density of the solution was measured spectrophotometrically at 599 nm. The formation of H-Pro-Ile isobutylamide in the presence of the test compound was compared with controls and the concentration of test compound required to give 50% inhibition (IC₅₀) was determined by means of a graph plotted from the various concentrations of test compound used.
In the above test the determination of the IC₅₀ values for potent inhibitors is limited by mutual depletion. In this respect, substrate S² is more sensitive than substrate S¹ and this allows reduced protease concentrations to be used, which results in lower IC₅₀ values. This will be seen from the results presented in the Table hereinafter where in turn the 2nd run with substrate S² was carried out using a lower protease concentration than in the 1st run which results again in lower IC₅₀ values.

HTLV-III (strain RF) = test: In vitro antiviral activity: HTLV-III (strain RF) in C8166 cells, p24 antigen capture assay; type: cell-based; details: Human immunodeficiency virus 1; concentration that produces 50% protection; C8166 cells infected with ten times the TCD₅₀, 72 hours at 37°C, viral protein 24 antigen capture; read-out: IC₅₀ Activity against HIV
Procedure: This assay uses HTLV-III (strain RF) grown in C8166 cells (a human CD4⁺ T lymphoblastoid line) using RPM1 1640 medium with bicarbonate buffer, antibiotics and 10% foetal bovine serum.
A suspension of cells is infected with ten times the TCD₅₀ of virus and adsorption allowed to proceed for 90 minutes at 37°C. The cells are washed three times with medium. The test is carried out in 6 ml tissue culture tubes, each tube containing 2 x 10⁵ infected cells in 1.5 ml of medium. Test compounds are dissolved in either aqueous medium or dimethyl sulphoxide, according to solubility, and a 15 µl solution of the compound added. The cultures are incubated at 37°C for 72 hours in a humidified atmosphere containing 5% carbon dioxide in air. The cultures are then centrifuged and an aliquot of the supernatant solubilized with Nonidet P40 and subjected to an antigen capture assay which uses a primary antiserum with particular reactivity against the viral protein 24 and a horseradish peroxidase detection system. Colour generation is measured spectrophotometrically and plotted against the concentration of test compound. The concentration that produces 50% protection is determined (IC₅₀).

[1] = substrate S² (succinyl-Val-Ser-Gln-Asn-Phe-Pro-Ile isobutylamide), 0.68 mM, 1st run, read-out: IC₅₀ Inhibition of HIV protease S² 1st run
[2] = substrate S², 0.68 mM, 2nd run, lower protease concentration than in the 1st run, read-out: IC₅₀ Inhibition of HIV protease S² 2nd run
[3] = substrate S¹ (succinyl-Ser-Leu-Asn-Tyr-Pro-Ile isobutylamide), 1.25 mM, read-out: IC₅₀ Inhibition of HIV protease S¹

For `CC[C@H](C)[C@H](NC(=O)[C@@H](C[C@H](O)[C@H](CC1CCCCC1)NC(=O)OC(C)(C)C)C(C)C)C(=O)NCCc1ccccc1` [Compound A, N²-[5(S)-(tert.Butoxyformamido)-6-cyclohexyl-4(S)-hydroxy-2(S)-isopropylhexanoyl]-N¹-phenethyl-L-isoleucinamide], the IC50 (HIV protease; [1]) was 4.5 nM, the IC50 (HIV protease; [2]) was 0.62 nM and the IC50 (HIV protease; [3]) was 12 nM. For the same compound, the IC50 (HTLV-III (strain RF)) was 100 nM.
In the case of `CC[C@H](C)[C@H](NC(=O)[C@@H](C[C@H](O)[C@H](CC1CCCCC1)NC(=O)OC(C)(C)C)C(C)C)C(=O)N[C@@H](Cc1ccccc1)C(=O)OC` [Compound B, N-[N-[5(S)-(tert.Butoxyformamido)-6-cyclohexyl-4(S)-hydroxy-2(S)-isopropylhexanoyl]-L-isoleucyl]-L-phenylalanine methyl ester], the IC50 (HIV protease; [1]) is reported as 3.4 nM, the IC50 (HIV protease; [2]) is reported as 0.48 nM and the IC50 (HIV protease; [3]) is reported as 20 nM.
In the case of `CC[C@H](C)[C@H](NC(=O)[C@@H](C[C@H](O)[C@H](CC1CCCCC1)NC(=O)OC(C)(C)C)C(C)C)C(=O)NCc1ccccc1` [Compound C, N²-[5(S)-(tert.Butoxyformamido)-6-cyclohexyl-4(S)-hydroxy-2(S)-isopropylhexanoyl]-N¹-benzyl-L-isoleucinamide], the IC50 (HIV protease; [1]) is reported as 3.3 nM, the IC50 (HIV protease; [3]) is reported as 15 nM and the IC50 (HTLV-III (strain RF)) is reported as 7 nM.
Compound `CC[C@H](C)[C@H](NC(=O)[C@@H](C[C@H](O)[C@H](CC1CCCCC1)NC(=O)OC(C)(C)C)C(C)C)C(=O)NCCc1ccccn1` [Compound D, N²-[5(S)-(tert.Butoxyformamido)-6-cyclohexyl-4(S)-hydroxy-2(S)-isopropylhexanoyl]-N¹-[2-(2-pyridyl)ethyl]-L-isoleucinamide] has an IC50 (HIV protease; [1]) of 2.5 nM, an IC50 (HIV protease; [2]) of 0.52 nM and an IC50 (HTLV-III (strain RF)) of 20 nM.
For `CC[C@H](C)[C@H](NC(=O)[C@@H](C[C@H](O)[C@H](CC1CCCCC1)NC(=O)OC(C)(C)C)C(C)C)C(=O)NC1Cc2ccccc2C1` [Compound E, N²-[5(S)-(tert.Butoxyformamido)-6-cyclohexyl-4(S)-hydroxy-2(S)-isopropylhexanoyl]-N¹-(2-indanyl)-L-isoleucinamide], the IC50 (HIV protease; [1]) was 4.3 nM, the IC50 (HIV protease; [2]) was 2.2 nM and the IC50 (HTLV-III (strain RF)) was 70 nM.
For `CC[C@H](C)[C@H](NC(=O)[C@@H](C[C@H](O)[C@H](CC1CCCCC1)NC(=O)OC(C)(C)C)C(C)C)C(=O)NCCN1CCOCC1` [Compound F, N²-[5(S)-(tert.Butoxyformamido)-6-cyclohexyl-4(S)-hydroxy-2(S)-isopropylhexanoyl]-N¹-(2-morpholinoethyl)-L-isoleucinamide], the IC50 (HIV protease; [1]) was 4 nM, the IC50 (HIV protease; [2]) was 1.9 nM and the IC50 (HTLV-III (strain RF)) was 100 nM.
Compound `CC[C@H](C)[C@H](NC(=O)[C@@H](C[C@H](O)[C@H](Cc1ccccc1)NC(=O)OC(C)(C)C)C(C)C)C(=O)NCCc1ccccc1` [Compound G, N²-[5(S)-(tert.Butoxyformamido)-4(S)-hydroxy-2(S)-isopropyl-6-phenylhexanoyl]-N¹-phenethyl-L-isoleucinamide] has an IC50 (HIV protease; [1]) of 4.1 nM, an IC50 (HIV protease; [2]) of 0.89 nM and an IC50 (HIV protease; [3]) of 32 nM. It also gave an IC50 (HTLV-III (strain RF)) of 100 nM.
Work on `CC[C@H](C)[C@H](NC(=O)[C@@H](C[C@H](O)[C@H](CC1CCCCC1)NC(=O)OCc1ccccc1)C(C)C)C(=O)NCCc1ccccc1` [Compound H, N²-[5(S)-Benzyloxyformamido-6-cyclohexyl-4(S)-hydroxy-2(S)-isopropylhexanoyl]-N¹-phenethyl-L-isoleucinamide] yielded an IC50 (HIV protease; [1]) of 3 nM, an IC50 (HIV protease; [2]) of 0.91 nM and an IC50 (HIV protease; [3]) of 22 nM. The IC50 (HTLV-III (strain RF)) was 60 nM.
With `CC[C@H](C)[C@H](NC(=O)[C@@H](C[C@H](O)[C@H](CC1CCCCC1)NC(=O)[C@H](CC(N)=O)NC(=O)OCc1ccccc1)C(C)C)C(=O)NCCc1ccccc1` [Compound I, N²-[5(S)-[[N-(Benzyloxycarbonyl)-L-asparaginyl]amino]-6-cyclohexyl-4(S)-hydroxy-2(S)-isopropylhexanoyl]-N¹-phenethyl-L-isoleucinamide] the IC50 (HIV protease; [1]) was 2.5 nM, the IC50 (HIV protease; [2]) was 0.39 nM and the IC50 (HIV protease; [3]) was 80 nM. It also gave an IC50 (HTLV-III (strain RF)) of 9 nM.
`CC[C@H](C)[C@H](NC(=O)[C@@H](C[C@H](O)[C@H](CC1CCCCC1)NC(=O)CC(C)(C)C)C(C)C)C(=O)NCCc1ccccc1` [Compound J, N²-[5(S)-(tert.Butylacetamido)-6-cyclohexyl-4(S)-hydroxy-2(S)-isopropylhexanoyl]-N¹-phenethyl-L-isoleucinamide] gave an IC50 (HIV protease; [1]) of 7.7 nM and an IC50 (HTLV-III (strain RF)) of 100 nM.
`CC[C@H](C)[C@H](NC(=O)[C@@H](C[C@H](O)[C@H](CC1CCCCC1)NC(=O)[C@H](CC#N)NC(=O)OCc1ccccc1)C(C)C)C(=O)NCCc1ccccc1` [Compound K, N²-[5(S)-[[N-(Benzyloxycarbonyl)-β-cyano-L-alanyl]amino]-6-cyclohexyl-4(S)-hydroxy-2(S)-isopropylhexanoyl]-N¹-phenethyl-L-isoleucinamide] gave an IC50 (HIV protease; [2]) of 1.6 nM and an IC50 (HTLV-III (strain RF)) of 4 nM.
Work on `CC[C@H](C)[C@H](NC(=O)[C@@H](C[C@H](O)[C@H](CC1CCCCC1)NC(=O)OC(C)(C)C)C(C)C)C(=O)NCCN1CCN(C(=O)OCc2ccccc2)CC1` [Compound L, N¹-[2-[4-(Benzyloxycarbonyl)-1-piperazinyl]ethyl]-N²-[5(S)-(tert.butoxyformamido)-6-cyclohexyl-4(S)-hydroxy-2(S)-isopropylhexanoyl]-L-isoleucineamide] yielded an IC50 (HIV protease; [2]) of 2.7 nM and an IC50 (HTLV-III (strain RF)) of 5 nM.
With `CC[C@H](C)[C@H](NC(=O)[C@@H](C[C@H](O)[C@H](CC1CCCCC1)NC(=O)OC(C)(C)C)C(C)C)C(=O)NCCc1ccc(O)cc1` [Compound M, N²-[5(S)-(tert.Butoxyformamido)-6-cyclohexyl-4(S)-hydroxy-2(S)-isopropylhexanoyl]-N¹-[2-(4-hydroxyphenyl)ethyl]-L-isoleucinamide] the IC50 (HIV protease; [2]) was 3.7 nM and the IC50 (HTLV-III (strain RF)) was 10 nM.
Work on `CC[C@H](C)[C@H](NC(=O)[C@H](C(C)C)[C@@H](O)[C@H](O)[C@H](CC1CCCCC1)NC(=O)OC(C)(C)C)C(=O)NCCN1CCN(C(=O)OCc2ccccc2)CC1` [Compound N, N¹-[2-[4-(Benzyloxycarbonyl)-1-piperazinyl]ethyl]-N²-[5(S)-(tert.butoxyformamido)-6-cyclohexyl-3(R),4(R)-dihydroxy-2(R)-isopropylhexanoyl]-L-isoleucinamide] yielded an IC50 (HIV protease; [2]) of 4.1 nM and an IC50 (HTLV-III (strain RF)) of less than 100 nM.
